“And” between values parts separate entries of the source, which are not always exact repeats. Identical values can stand only once. A value given as a limit tells only on which side of the number the result lay.

Data on 27 molecules can be found in ChEMBL document CHEMBL1142030, “Identification of small molecule inhibitors of the hepatitis C virus RNA-dependent RNA polymerase from a pyrrolidine combinatorial mixture” (Bioorg Med Chem Lett, 2005).

In this test the target is RNA-directed RNA polymerase (Hepacivirus hominis, UniProt O39930). In words: Inhibitory concentration against Hepatitis C virus RNA dependent RNA polymerase Nonstructural protein 5B.
RNA-directed RNA polymerase, sequence (O39930 whole entry): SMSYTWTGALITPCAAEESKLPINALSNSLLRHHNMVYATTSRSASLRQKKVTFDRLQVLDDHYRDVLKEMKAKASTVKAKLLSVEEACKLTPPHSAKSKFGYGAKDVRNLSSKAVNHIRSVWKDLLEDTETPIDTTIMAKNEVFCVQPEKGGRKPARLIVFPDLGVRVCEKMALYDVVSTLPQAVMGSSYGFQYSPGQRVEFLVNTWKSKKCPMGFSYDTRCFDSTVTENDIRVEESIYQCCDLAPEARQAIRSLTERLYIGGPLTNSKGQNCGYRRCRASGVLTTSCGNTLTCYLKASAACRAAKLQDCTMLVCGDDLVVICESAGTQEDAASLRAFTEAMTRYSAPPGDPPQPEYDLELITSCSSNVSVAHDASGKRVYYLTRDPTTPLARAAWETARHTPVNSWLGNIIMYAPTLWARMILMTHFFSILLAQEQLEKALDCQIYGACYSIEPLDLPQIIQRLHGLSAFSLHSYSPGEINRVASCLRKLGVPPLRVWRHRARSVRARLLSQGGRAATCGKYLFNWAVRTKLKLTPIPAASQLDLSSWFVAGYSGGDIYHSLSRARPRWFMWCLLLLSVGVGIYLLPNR
As a reminder, the IC50 is the point on the concentration scale where inhibition reaches its midpoint. A lower IC50 goes with greater potency. Consider `CC(C)C[C@@]1(C(=O)O)C[C@H](C(=O)O)[C@H](c2cccs2)N1C(=O)c1ccccc1C(F)(F)F`, for which the half-maximal inhibitory concentration (IC50) was > 20000 nM.

Molecule `CC(C)C[C@@]1(C(=O)O)C[C@H](C(=O)O)[C@H](c2cccs2)N1C(=O)c1ccc([N+](=O)[O-])cc1` gave an IC50 of 3200 nM.

Consider `CC(C)C[C@@]1(C(=O)O)C[C@H](C(=O)O)[C@H](c2cccs2)N1C(=O)c1ccc(Cl)c(Cl)c1`, for which the midpoint of inhibition, the IC50, lay at 600 nM.

For `CC(C)C[C@@]1(C(=O)O)C[C@H](C(=O)O)[C@H](c2ccco2)N1C(=O)c1ccc(C(F)(F)F)cc1`, the concentration for half-maximal inhibition (IC50) was found to be 800 nM.

`CC(C)C[C@@]1(C(=O)O)C[C@H](C(=O)O)[C@H](c2cccs2)N1C(=O)c1cccc(C(F)(F)F)c1` registered an IC50 of 600 nM. The IC50 values of the last two molecules are within 1.5-fold of each other.

`CC(C)C[C@@]1(C(=O)O)C[C@H](C(=O)O)[C@H](c2ccccc2)N1C(=O)c1ccc(C(F)(F)F)cc1`: the IC50 stood at 700 nM.

On to `O=C(O)CC[C@@]1(C(=O)O)C[C@H](C(=O)O)[C@H](c2ccccc2)N1C(=O)c1ccc(C(F)(F)F)cc1`, for which the half-maximal inhibitory concentration (IC50) is > 20000 nM.

In turn, `CC(C)C[C@@]1(C(=O)O)C[C@H](C(=O)O)[C@H](c2cccs2)N1C(=O)c1cccc2ccccc12` showed a half-maximal inhibitory concentration (IC50) of 700 nM.

Regarding `CC(C)C[C@@]1(C(=O)O)C[C@H](C(=O)O)[C@H](c2cccs2)N1C(=O)c1ccc(C(F)(F)F)cc1`, the IC50 was 300 nM and 190 nM.

`CC(C)C[C@@]1(C(=O)O)C[C@H](C(=O)O)[C@H](c2cccs2)N1C(=O)c1ccncc1`: the 50% inhibitory concentration (IC50) was > 20000 nM.

Turning to `Cc1ccc([C@H]2[C@@H](C(=O)O)C[C@@](CC(C)C)(C(=O)O)N2C(=O)c2ccc(C(F)(F)F)cc2)cc1`, the IC50 came out at 1000 nM.

For the molecule `CCCCCCC(=O)N1[C@@H](c2cccs2)[C@@H](C(=O)O)C[C@@]1(CC(C)C)C(=O)O`, the IC50 is > 20000 nM.

As for `CC(C)C[C@@]1(C(=O)O)C[C@H](C(=O)O)[C@H](c2nccs2)N1C(=O)c1ccc(C(F)(F)F)cc1`, the IC50 stood at 400 nM. In other words, the sub-micromolar range.

`CC(C)C[C@@]1(C(=O)O)C[C@H](C(=O)O)[C@H](C(C)C)N1C(=O)c1ccc(C(F)(F)F)cc1` registered a half-maximal inhibitory concentration (IC50) of 500 nM.

Molecule `CC(C)C[C@@]1(C(=O)O)C[C@H](C(=O)O)[C@H](c2ccccn2)N1C(=O)c1ccc(C(F)(F)F)cc1` gave a half-inhibitory concentration (IC50) of 700 nM. The IC50 values of the last two molecules are within 1.5-fold of each other.

Molecule `O=C(O)[C@H]1C[C@@](Cc2ccccc2)(C(=O)O)N(C(=O)c2ccc(C(F)(F)F)cc2)[C@H]1c1ccccc1` returned an IC50 of 1900 nM.

The molecule `COc1ccccc1[C@H]1[C@@H](C(=O)O)C[C@@](CC(C)C)(C(=O)O)N1C(=O)c1ccc(C(F)(F)F)cc1` displayed an IC50 of 5100 nM.

Consider `CC(C)C[C@@]1(C(=O)O)C[C@H](C(=O)O)[C@H](c2cccs2)N1C(=O)c1ccccc1`, for which inhibition was half-maximal at 11400 nM (IC50). This IC50 lies about 2.2-fold higher than the previous one.

For `CC(C)C[C@@]1(C(=O)O)C[C@H](C(=O)O)[C@H](c2cccs2)N1C(=O)c1ccc(Cl)cc1`, the IC50 was found to be 1700 nM.

In the case of `C[C@@]1(C(=O)O)C[C@H](C(=O)O)[C@H](c2ccccc2)N1C(=O)c1ccc(C(F)(F)F)cc1`, the 50% inhibitory concentration (IC50) was > 20000 nM.

`NCCC[C@@]1(C(=O)O)C[C@H](C(=O)O)[C@H](c2ccccc2)N1C(=O)c1ccc(C(F)(F)F)cc1`: the IC50 is > 20000 nM.

With `O=C(O)[C@H]1C[C@@](Cc2ccc(O)cc2)(C(=O)O)N(C(=O)c2ccc(C(F)(F)F)cc2)[C@H]1c1ccccc1`, the IC50 is > 20000 nM.

`CC(C)C[C@@]1(C(=O)O)C[C@H](C(=O)O)[C@H](c2ccc(Cl)cc2)N1C(=O)c1ccc(C(F)(F)F)cc1` returned a 50% inhibitory concentration (IC50) of 900 nM.

The molecule `CCCC[C@@]1(C(=O)O)C[C@H](C(=O)O)[C@H](c2ccccc2)N1C(=O)c1ccc(C(F)(F)F)cc1` showed a 50% inhibitory concentration (IC50) of 3300 nM.

On to `O=C(O)[C@H]1C[C@@H](C(=O)O)N(C(=O)c2ccc(Cl)c(Cl)c2)C1` (racemic), for which inhibition was half-maximal at 12000 nM (IC50).

`O=C(O)[C@H]1C[C@@H](C(=O)O)N(C(=O)c2ccc(C(F)(F)F)cc2)C1` (racemic) returned an IC50 of 7600 nM. This IC50 is about 1.6-fold lower than that of the molecule before.

Take `CC(C)C[C@@]1(C(=O)O)C[C@H](C(=O)O)C(c2cccs2)N1C(=O)c1ccc(C(F)(F)F)cc1` (single isomer, unassigned): the IC50 was found to be 18000 nM.
